Like-named read-outs stand apart in the source and are kept apart here.
Tests used:
Type in all cases: cell-based
[1] = tested on: NCI-H23 cells; assay: Proliferation assay, cells in adhesion; details: for IC50: Homo sapiens
[2] = tested on: KG-1 cells; assay: Long term proliferation assay, Cell Titer-Glo read-out; details: for IC50: Homo sapiens
Experimental: (§1) Compounds of invention are tested in the 5 suspension lines by 14-day long-term proliferation assay.
(§2) The compound is tested in 10-pt dose titration (client will determine the starting concentration and the dilution scheme) and the final DMSO concentration is kept at 0.2%.
(§3) On Day 0, in a flat bottom 96-well plate, add 100 μL of cells per well at the densities optimized. Prepare compounds in DMSO at 500× final concentration. Dilute the compounds with DMSO at the dilution. Dilute the compounds in media at 3× final concentration. Add 50 μL of compound or DMSO at 3× final concentration to each well. Final volume in each well is 150 μL, and final concentration of DMSO is 0.2%. Also include 3 untreated control wells, by adding 50 μL of media alone. Incubate plates for 96 hours.
(§4) To do this take the total viable cell count calculated using step: • 1. Take the average of the replicates for each dose in order to be used in splitting the cells. • 2. Use a 96 well V-bottom plate to spin down the cells to remove old media and compound to split the cells. • 3. Based on the split ratio place the proper amount of media and cells into the V-bottom plate, and spin the plate at 1100 rpm for 5 minutes. • 4. Following the spin remove the media, careful not to disturb the cell pellet. Re-suspend pellet in 100 μL fresh media, and add to a new 96-well flat bottom plate. • 5. Add fresh compound, in the same manner as Step 3). • 6. Incubate plates for 72 hours. Repeat steps 5)-10) on Day 7. • 7. Incubate plates for 96 hours. Repeat Step 5)-10) on Day 11. • 8. Incubate 72 hours and repeat step 5) to take a final count. • 9. Data Analysis
(§5) To calculate growth for days 4, 7, 11, and 14: • 1. Calculate the split factor for day 4 to 7, day 7 to 11, and day 11-14. The split factor is the viable cells/mL on Day X (either 4, 7 or 11) divided by the density the cells are being split back to. • 2. For growth of cells from day 4 to 7, multiply the day 7 viable cells/mL density by the split factor from day 4. • 3. For growth of cells from day 7 to 11, multiply the day 11 viable cells/mL density by the days 4, and 7 split factors. • 4. For growth of cells from Day 11 to 14, multiply the Day 14 viable cells/mL density by the days 4, 7, and 11 split factors. • 5. Plot growth on semi-log chart (viable cells/mL on Y axis, in log, and days on X axis). • 6. The growth inhibition was calculated with the formula ((untreated cell numbers-treated cell numbers)/untreated cell)). • 7. Calculate the IC50 for each compound in each line using XLFit (Sigmoidal Dose-Response Model, y=(Bottom+((Top-Bottom)/(1+((IC50/×)^Hill))))).

[3] = tested on: OCI-AML-3 cells; assay: as above; details: for IC50: Homo sapiens; for % max: OCI-AML3
Experimental: as §1, §2, §3, §4, §5

[4] = tested on: SK-LU-1/AMG510 cells; assay: Proliferation assay, cells in adhesion; details: for IC50: Homo sapiens
[5] = tested on: MIAPaCa-2 cells; assay: Proliferation assay, cells in adhesion; details: for IC50: Homo sapiens
[6] = tested on: KG-1 cells; assay: Long term proliferation assay, InCell read-out; details: for IC50: Homo sapiens
Experimental: as §1, §2, §3, §4, §5

[7] = tested on: OCI-AML-3 cells; assay: Long term proliferation assay, InCell read-out; details: for IC50: Homo sapiens
Experimental: as §1, §2, §3, §4, §5

[8] = tested on: SK-LU-1 cells; assay: Proliferation assay, cells in adhesion; details: for IC50: Homo sapiens

IC50 ([1]; NCI-H23, NCI-H23, T4, read-out: IC50): > 5000 nM
IC50 ([1]; NCI-H23, NCI-H23, T4, read-out: pIC50 (converted)): > 5010 nM
IC50 ([1]; NCI-H23, NCI-H23, T7, read-out: IC50): > 5000 nM
IC50 ([1]; NCI-H23, NCI-H23, T7, read-out: pIC50 (converted)): > 5010 nM
IC50 ([1]; NCI-H23, NCI-H23, T11, read-out: IC50): > 5000 nM
IC50 ([1]; NCI-H23, NCI-H23, T11, read-out: pIC50 (converted)): > 5010 nM
IC50 ([3]; OCI-AML-3, 96 h, OCI-AML-3, Day 4, Cell Titer-Glo, read-out: Day 4 IC50): 830 nM
IC50 ([3]; OCI-AML-3, 168 h, OCI-AML-3, Day 7, Cell Titer-Glo, read-out: Day 7 IC50): 660 nM
IC50 ([3]; OCI-AML-3, 264 h, OCI-AML-3, Day 11, Cell Titer-Glo, read-out: Day 11 IC50): 580 nM
IC50 ([3]; OCI-AML-3, 336 h, OCI-AML-3, Day 14, Cell Titer-Glo, read-out: Day 14 IC50): 600 nM
IC50 ([3]; OCI-AML-3, OCI-AML3, T4, CellTiter-Glo, read-out: IC50): 830 nM
IC50 ([3]; OCI-AML-3, OCI-AML3, T4, CellTiter-Glo, read-out: pIC50 (converted)): 832 nM
IC50 ([3]; OCI-AML-3, OCI-AML3, T11, CellTiter-Glo, read-out: IC50): 580 nM
IC50 ([3]; OCI-AML-3, OCI-AML3, T11, CellTiter-Glo, read-out: pIC50 (converted)): 575 nM
IC50 ([4]; SK-LU-1, SK-LU-1/AMG510, T4, read-out: IC50): > 5000 nM
IC50 ([4]; SK-LU-1, SK-LU-1/AMG510, T4, read-out: pIC50 (converted)): > 5010 nM
IC50 ([4]; SK-LU-1, SK-LU-1/AMG510, T7, read-out: IC50): > 5000 nM
IC50 ([4]; SK-LU-1, SK-LU-1/AMG510, T7, read-out: pIC50 (converted)): > 5010 nM
IC50 ([4]; SK-LU-1/AMG510, T11, read-out: IC50): > 5000 nM
IC50 ([4]; SK-LU-1/AMG510, T11, read-out: pIC50 (converted)): > 5010 nM
IC50 ([5]; MIA PaCa-2, MIAPaCa-2, T4, read-out: IC50): 1480 nM
IC50 ([5]; MIA PaCa-2, MIAPaCa-2, T4, read-out: pIC50 (converted)): 1480 nM
IC50 ([5]; MIA PaCa-2, MIAPaCa-2, T7, read-out: IC50): 870 nM
IC50 ([5]; MIA PaCa-2, MIAPaCa-2, T7, read-out: pIC50 (converted)): 871 nM
IC50 ([5]; MIA PaCa-2, MIAPaCa-2, T11, read-out: IC50): 520 nM
IC50 ([5]; MIA PaCa-2, MIAPaCa-2, T11, read-out: pIC50 (converted)): 525 nM
IC50 ([7]; OCI-AML-3, 96 h, OCI-AML-3, Day 4, read-out: Day 4 IC50): 450 nM
IC50 ([7]; OCI-AML-3, 264 h, OCI-AML-3, Day 11, read-out: Day 11 IC50): 460 nM
IC50 ([7]; OCI-AML-3, OCI-AML3, T4, read-out: IC50): 450 nM
IC50 ([7]; OCI-AML-3, OCI-AML3, T4, read-out: pIC50 (converted)): 447 nM
IC50 ([7]; OCI-AML-3, OCI-AML3, T11, read-out: IC50): 460 nM
IC50 ([7]; OCI-AML-3, OCI-AML3, T11, read-out: pIC50 (converted)): 457 nM
IC50 ([8]; SK-LU-1, SK-LU-1, T4, read-out: IC50): > 5000 nM
IC50 ([8]; SK-LU-1, SK-LU-1, T4, read-out: pIC50 (converted)): > 5010 nM
IC50 ([8]; SK-LU-1, SK-LU-1, T7, read-out: IC50): > 5000 nM
IC50 ([8]; SK-LU-1, SK-LU-1, T7, read-out: pIC50 (converted)): > 5010 nM
IC50 ([8]; SK-LU-1, SK-LU-1, T11, read-out: IC50): > 5000 nM
IC50 ([8]; SK-LU-1, SK-LU-1, T11, read-out: pIC50 (converted)): > 5010 nM
SMILES: CN(C)C/C=C/C(=O)Nc1ccc(CC(=O)Nc2ccc(-c3cc4c(N5CCOCC5)ncnc4[nH]3)cc2)cc1 [Compound 5]
% max ([1]; NCI-H23, T4): <50%
% max ([1]; NCI-H23, T7): <50%
% max ([1]; NCI-H23, T11): <50%
IC50 ([2]; 96 h, Day 4, Cell Titer-Glo, read-out: Day 4 IC50): > 5000 nM
IC50 ([2]; 168 h, Day 7, Cell Titer-Glo, read-out: Day 7 IC50): > 5000 nM
IC50 ([2]; 264 h, Day 11, Cell Titer-Glo, read-out: Day 11 IC50): 4680 nM
IC50 ([2]; 336 h, Day 14, Cell Titer-Glo, read-out: Day 14 IC50): 4070 nM
IC50 ([2]; T4, CellTiter-Glo, read-out: IC50): > 5000 nM
IC50 ([2]; T4, CellTiter-Glo, read-out: pIC50 (converted)): > 5010 nM
IC50 ([2]; T11, CellTiter-Glo, read-out: IC50): 4680 nM
IC50 ([2]; T11, CellTiter-Glo, read-out: pIC50 (converted)): 4680 nM
% max ([2]; T4, CellTiter-Glo): <50%
% max ([2]; T11, CellTiter-Glo): 59%
% max ([3]; T4, CellTiter-Glo): 97%
% max ([3]; T11, CellTiter-Glo): 99%
% max ([4]; SK-LU-1/AMG510, T4): <50%
% max ([4]; SK-LU-1/AMG510, T7): <50%
% max ([4]; SK-LU-1/AMG510, T11): <50%
% max ([5]; MIAPaCa-2, T4): 95%
% max ([5]; MIAPaCa-2, T7): 98%
% max ([5]; MIAPaCa-2, T11): 99%
IC50 ([6]; KG-1, 96 h, KG-1, Day 4, read-out: Day 4 IC50): > 5000 nM
IC50 ([6]; KG-1, 264 h, KG-1, Day 11, read-out: Day 11 IC50): > 4470 nM
IC50 ([6]; KG-1, KG-1, T4, read-out: IC50): > 5000 nM
IC50 ([6]; KG-1, KG-1, T4, read-out: pIC50 (converted)): > 5010 nM
IC50 ([6]; KG-1, KG-1, T11, read-out: IC50): 4470 nM
IC50 ([6]; KG-1, KG-1, T11, read-out: pIC50 (converted)): 4470 nM
% max ([6]; KG-1, T4): <50%
% max ([6]; KG-1, T11): 52%
% max ([7]; OCI-AML3, T4): 100%
% max ([7]; OCI-AML3, T11): 100%
% max ([8]; SK-LU-1, T4): <50%
% max ([8]; SK-LU-1, T7): <50%
% max ([8]; SK-LU-1, T11): <50%

Source: patent publication US12116371B2, “Substituted pyridines as irreversible inhibitors of menin-MLL interaction” (BIOMEA FUSION, INC., priority 2018, dated 2024)
